Assay results taken from US20030104974A1, “Dual inhibitorsof PDE 7 and PDE 4” (priority 2001, published 2003).
Where two headings read alike, the source gives them in different places.

What was measured:
PDE1 = experiment: SPA assay, PDE1 (3H-cyclic GMP substrate, calmodulin); format: biochemical; conditions: bovine PDE1, calmodulin
Procedure: (§1) Inhibition of PDE activity in Hut78 cell lysate was determined using an SPA specific for cAMP (Amersham Pharmacia Biotech, Buckinghamshire, UK) according to the manufacturers instructions with minor modifications. Enzyme assays were performed at room temperature in the presence of 50 mM Tris HCl, pH7.5, containing 8.3 mM MgCl2, 1.7 mM EGTA and 0.5 mg/mL BSA. Each assay was performed in a 100 μL reaction volume in 96 well microtitre plates containing the above buffer, 0.3 ul of Hut78 cell lysate treated with 2 uM Zardaverine to inhibit PDE3 and PDE4, 0.05 uCi of [5′,8-3H] Adenosine 3′,5′-cyclic phosphate as an ammonium salt for 20 min. The reaction was terminated by the addition of 50 μl PDE SPA beads (1 mg) water with 10 mM cold cAMP (Sigma, St. Louis Mo.). The reaction mix was allowed to settle for 20 minutes before counting in a Top Count-NXT scintillation counter (Packard BioScience, Meriden, Conn.). […] The following PDEs/activators and enzyme sources were used: PDE1, bovine (Sigma St Louis), calmodulin; PDE2, rat kidney, cGMP; PDE3, human platelet; PDE4, rat kidney; PDE5, human platelet, and PDE6, bovine retina.
(§2) The LPS human PBMC TNF production assay was performed as described above.

[1] = system: Lipopolysaccharide (LPS) induced tumor necrosis factor (TNF) production; experiment: LPS induced TNF production in mice (Examples I-1, I-2); format: in vivo; conditions: for inhibited TNF production: Example I-2; for reduction in serum TNF: Example I-1
Procedure: Mice were exposed to lipopolysaccharide to induce production of tumor necrosis factor as described by Cornwell, et. al. (Lipopolysaccharide, but not lethal infection, releases tumor necrosis factor in mice. Cornwell, R. D.; Golenbock, D. T.; Proctor, R. A. Adv.; Exp. Med. Biol. (1990), 256(Endotoxin), 585-8.). The mice were divided in to groups of eight animals each. All animals received an intraperitoneal (IP) injection of 50 μg/kg of LPS. The vehicle control group of animals received 0.2 mL of a vehicle of tween80 (5%), 95% ethanol (5%) and water 90%, sixty minutes prior to administration of LPS, and an IP injection of 0.2 mL of water fifteen minutes prior to administration of LPS. […] A group of mice (F1 group) were administered 0.2 mL of a vehicle of tween80 (5%), 95% ethanol (5%) and water 90%, sixty minutes prior to administration of LPS, and Example F1, at a dose of 7.5 mg/kg, IP in water, fifteen minutes prior to administration of LPS. […] A group of mice (dexamethasone group) were administered a 5 mg/kg dose of dexamethasone in a vehicle of tween80 (5%), 95% ethanol (5%) and water 90%, sixty minutes prior to administration of LPS, and 0.2 mL of water IP, fifteen minutes prior to administration of LPS.
Cilomilast inhibited TNF production by 56% (p<0.05). […] Finally the dexamethasone control inhibited TNF production 94%.

PDE3 = biological target: T1, PDE3 (Homo sapiens, UniProt Q14432); experiment: SPA assay, PDE3 (human platelet); format: biochemical
T1 construct: PDE3, human platelet; from tissue; host or cells: human platelet
T1 sequence (Q14432 whole entry): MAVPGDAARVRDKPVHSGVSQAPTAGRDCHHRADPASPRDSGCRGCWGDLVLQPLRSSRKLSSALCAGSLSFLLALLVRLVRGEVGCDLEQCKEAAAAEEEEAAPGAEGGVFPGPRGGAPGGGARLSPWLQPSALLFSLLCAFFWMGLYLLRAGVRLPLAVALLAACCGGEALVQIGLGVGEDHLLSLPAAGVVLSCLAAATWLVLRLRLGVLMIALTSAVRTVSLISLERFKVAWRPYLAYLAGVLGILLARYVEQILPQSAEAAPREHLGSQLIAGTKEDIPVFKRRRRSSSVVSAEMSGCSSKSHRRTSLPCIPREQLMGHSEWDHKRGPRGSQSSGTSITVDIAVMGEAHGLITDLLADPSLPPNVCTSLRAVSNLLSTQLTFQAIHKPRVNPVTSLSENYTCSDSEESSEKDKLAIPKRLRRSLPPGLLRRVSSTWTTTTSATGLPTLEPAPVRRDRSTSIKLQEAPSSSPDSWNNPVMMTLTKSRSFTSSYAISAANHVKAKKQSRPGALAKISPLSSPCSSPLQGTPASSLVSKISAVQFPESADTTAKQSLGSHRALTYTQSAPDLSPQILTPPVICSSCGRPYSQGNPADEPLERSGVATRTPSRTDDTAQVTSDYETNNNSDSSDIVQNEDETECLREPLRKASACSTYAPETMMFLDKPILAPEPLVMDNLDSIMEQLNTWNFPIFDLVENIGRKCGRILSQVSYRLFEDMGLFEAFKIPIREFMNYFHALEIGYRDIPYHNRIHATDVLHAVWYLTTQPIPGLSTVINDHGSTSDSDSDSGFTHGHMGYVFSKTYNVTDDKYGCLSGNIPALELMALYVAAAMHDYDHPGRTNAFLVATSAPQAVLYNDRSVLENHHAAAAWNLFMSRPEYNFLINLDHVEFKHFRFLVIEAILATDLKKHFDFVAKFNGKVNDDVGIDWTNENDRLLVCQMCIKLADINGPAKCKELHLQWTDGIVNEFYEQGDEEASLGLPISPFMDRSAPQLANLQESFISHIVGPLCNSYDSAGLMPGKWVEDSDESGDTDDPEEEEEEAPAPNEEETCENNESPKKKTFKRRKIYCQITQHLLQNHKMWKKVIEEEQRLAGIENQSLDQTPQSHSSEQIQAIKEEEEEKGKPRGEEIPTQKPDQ
Procedure: as §1, §2

PDE6 = biological target: T2, PDE6 (Bos taurus, UniProt P11541+P23439); experiment: SPA assay, PDE6 (bovine retina, 3H-cyclic GMP substrate); format: biochemical
T2 construct: PDE6, bovine retina; from tissue; host or cells: bovine retina
T2 sequence (P11541 2-856 limits assumed): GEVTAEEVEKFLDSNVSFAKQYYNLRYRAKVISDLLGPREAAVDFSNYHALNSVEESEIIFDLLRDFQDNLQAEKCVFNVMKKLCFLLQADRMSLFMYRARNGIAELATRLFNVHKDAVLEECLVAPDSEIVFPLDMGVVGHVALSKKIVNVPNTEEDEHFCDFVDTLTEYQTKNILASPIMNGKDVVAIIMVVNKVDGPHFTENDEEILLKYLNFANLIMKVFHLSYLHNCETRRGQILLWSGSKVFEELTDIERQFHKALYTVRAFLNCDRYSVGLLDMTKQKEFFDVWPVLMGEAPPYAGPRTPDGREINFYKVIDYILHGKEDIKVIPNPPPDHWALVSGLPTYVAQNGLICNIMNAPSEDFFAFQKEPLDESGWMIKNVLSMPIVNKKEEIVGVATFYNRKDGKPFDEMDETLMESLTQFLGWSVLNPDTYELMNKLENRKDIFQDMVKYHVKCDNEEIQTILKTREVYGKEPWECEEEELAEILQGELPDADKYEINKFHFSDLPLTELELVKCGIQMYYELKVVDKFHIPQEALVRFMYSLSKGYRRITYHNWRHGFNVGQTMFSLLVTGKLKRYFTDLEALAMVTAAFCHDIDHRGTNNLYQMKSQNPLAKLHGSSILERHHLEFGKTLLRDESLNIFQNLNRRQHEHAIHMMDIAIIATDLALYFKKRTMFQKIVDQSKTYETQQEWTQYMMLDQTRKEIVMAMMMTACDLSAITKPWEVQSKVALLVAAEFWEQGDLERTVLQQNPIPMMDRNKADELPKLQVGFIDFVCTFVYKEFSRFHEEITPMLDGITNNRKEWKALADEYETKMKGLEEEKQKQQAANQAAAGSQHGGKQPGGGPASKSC
T2 sequence (P23439 2-850 limits assumed): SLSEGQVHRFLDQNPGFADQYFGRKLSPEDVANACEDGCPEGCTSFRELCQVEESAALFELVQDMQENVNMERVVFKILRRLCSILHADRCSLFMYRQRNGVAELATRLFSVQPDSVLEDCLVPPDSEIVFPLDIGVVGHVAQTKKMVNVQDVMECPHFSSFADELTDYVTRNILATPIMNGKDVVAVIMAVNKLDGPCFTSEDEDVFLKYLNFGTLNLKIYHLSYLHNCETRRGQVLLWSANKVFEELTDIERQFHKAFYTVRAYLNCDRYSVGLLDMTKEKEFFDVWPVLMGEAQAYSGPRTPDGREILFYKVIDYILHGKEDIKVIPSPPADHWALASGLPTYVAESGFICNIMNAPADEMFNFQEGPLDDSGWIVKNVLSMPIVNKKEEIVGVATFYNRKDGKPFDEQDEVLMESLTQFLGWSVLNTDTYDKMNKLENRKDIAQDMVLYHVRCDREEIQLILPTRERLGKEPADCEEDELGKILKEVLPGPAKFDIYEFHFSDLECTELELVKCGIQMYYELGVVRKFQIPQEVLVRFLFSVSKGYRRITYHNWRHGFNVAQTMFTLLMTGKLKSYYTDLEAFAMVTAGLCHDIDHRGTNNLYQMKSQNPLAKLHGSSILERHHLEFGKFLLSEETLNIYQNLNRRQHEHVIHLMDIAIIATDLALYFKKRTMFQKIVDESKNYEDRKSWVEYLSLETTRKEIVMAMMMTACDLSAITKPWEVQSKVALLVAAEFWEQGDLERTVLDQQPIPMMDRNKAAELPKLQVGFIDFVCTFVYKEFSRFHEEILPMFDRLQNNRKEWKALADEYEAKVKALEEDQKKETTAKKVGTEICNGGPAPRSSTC
Procedure: as §1, §2

[2] = system: LPS human PBMC TNF production; experiment: LPS human PBMC TNF production assay; format: cell-based; conditions: LPS 6.25 ng/ml, 4 h
Procedure: Peripheral blood mononuclear cells (PBMC) were isolated from whole blood by density gradient centrifugation over Lymphoprep, 1.077. Cells were plated into 96 well U-bottom plates at 2.5×10^5 cells/well in 10% FBS RPMI 1640 (Life Technologies/Gibco-BRL) containing 10 ug/ml anti-CD3 (G19-4, Bristol-Myers Squibb P.R.I., Princeton, N.J.) and lug/ml anti-CD28 (9.3, Bristol-Myers Squibb P.R.I.) in the presence and absence of inhibitors. DMSO (used as a solvent for inhibitors) was added to the medium at 0.1% final concentration. The total volume per well was 200 μL. Cells were incubated at 37 C. 5% CO2 for 3 days, at which time 0.5 μCi of ^3H-thymidine was added to each well. Six hours following the addition of ^3H-thmidine, the plates were harvested onto filter plates, 30 ul EcoLite scintillant (ICN, Costa Mesa, Calif.) was added per well, and plates read on a Top Count-NXT scintillation counter.
The ability of compounds to inhibit the production and secretion of TNFα from leukocytes was performed using either PBMC (obtained as described above) or the THP-1 cell line as a source of monocytes. Compounds were diluted in RPMI 1640 supplemented with 10% FBS and DMSO at a final concentration of 0.2%. […] Soluble TNFα was detected by ELISA developed by R&D Systems (Minneapolis, Minn.) according to the manufacturers instructions. […]

PDE7 = biological target: T3, PDE7 (Homo sapiens, UniProt Q13946); experiment: SPA assay for cAMP, PDE7 in Hut78 cell lysate treated with Zardaverine; format: biochemical; conditions: for IC50: Hut78 cell lysate, SPA
T3 construct: endogenous in cells; host or cells: Hut78 cells (crude lysate)
T3 sequence (Q13946 whole entry): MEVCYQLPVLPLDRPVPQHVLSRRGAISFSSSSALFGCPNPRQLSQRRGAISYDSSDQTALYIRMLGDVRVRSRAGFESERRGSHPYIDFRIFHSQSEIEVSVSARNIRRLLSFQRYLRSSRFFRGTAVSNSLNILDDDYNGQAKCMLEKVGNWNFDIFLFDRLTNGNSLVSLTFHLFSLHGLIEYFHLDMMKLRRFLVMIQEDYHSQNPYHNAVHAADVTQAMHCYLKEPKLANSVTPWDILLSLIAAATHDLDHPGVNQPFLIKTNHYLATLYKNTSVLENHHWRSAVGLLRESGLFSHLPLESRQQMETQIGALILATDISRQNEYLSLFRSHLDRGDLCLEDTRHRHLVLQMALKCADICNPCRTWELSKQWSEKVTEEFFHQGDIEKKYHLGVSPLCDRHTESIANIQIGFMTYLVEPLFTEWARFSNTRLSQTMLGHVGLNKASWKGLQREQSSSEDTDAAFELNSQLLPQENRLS
Procedure: Hut78 cells were grown in 10% FCS in Iscoves Modified Dulbecco's Medium (Gibco BRL-Life Technologies, Grand Island, N.Y.) with antibiotics. Cells were centrifuged and resuspended in four volumes of [40 mM Tris (pH 7.5)/50 μM EDTA/200 μM PMSF with a cocktail of Protease inhibitors (Boehringher Mannheim, Indianapolis, Ind.)] at 4 C. Cells were homogenized using a Virtis homogenizer, and the lysate was centrifuged twice for 15 min at 15,000×g. Glycerol was added to a final volume of 50% for storage at −20C.
as §1, §2

PDE5 = biological target: T4, PDE5 (Homo sapiens, UniProt O76074); experiment: SPA assay, PDE5 (human platelet, 3H-cyclic GMP substrate); format: biochemical
T4 construct: PDE5, human platelet; from tissue; host or cells: human platelet
Procedure: as §1, §2

PDE4 = experiment: SPA assay, PDE4 (rat kidney); format: biochemical
Procedure: as §1, §2

[3] = Pharmacokinetic data in mice for Example F1 and rolipram; format: in vivo; conditions: for Cmax: mouse, plasma
[4] = mice, F1 30 mg/kg IP, rolipram 10 mg orally

CCOC(=O)c1sc(Nc2nc(N3CCC(O)CC3)cc(N3CCC(O)CC3)n2)nc1C [Example F2, 2-[4,6-Bis-(4-hydroxy-piperidin-1-yl)-pyrimidin-2-ylamino]-4-methyl-thiazole-5-carboxylic Acid Ethyl Ester]
IC50 (PDE1): 4.8 µM | inhibited TNF production ([1]; F2 30 mg/kg, not statistically significant): 33.7% | IC50 (PDE3): 20 µM | IC50 (PDE6): 0.73 µM | IC50 [2]: > 25 µM | IC50 (PDE7): 0.06 µM | IC50 (PDE5): 0.72 µM | IC50 (PDE4): 3.2 µM

CCOC(=O)c1sc(Nc2nc(NCc3cc(OC)c(OC)c(OC)c3)cc(N3CCC(N(C)C)CC3)n2)nc1C [Example F1, 2-[[4-[4-(Dimethylamino)-1-piperidinyl]-6-[[(3,4,5-trimethoxphenyl)methyl]amino]-2-pyrimidinyl]amino]-4-methyl-5-thiazolecarboxylic Acid, Ethyl Ester]
IC50 (PDE1): 4.3 µM | reduction in serum TNF ([1]; F1 7.5 mg/kg IP 15 min prior to LPS 50 μg/kg IP, vs vehicle): 52% | IC50 (PDE3): 32 µM | IC50 (PDE6): 7.5 µM | IC50 (PDE7): 0.03 µM | selective for PDE7 over PDE4 (PDE7; ratio of PDE4 and PDE7 IC50): 100 fold | IC50 (PDE5): 2.8 µM | IC50 (PDE4): 3 µM | plasma concentration of F1 compared with its PDE4 IC50 ([3]; mice, F1 30 mg/kg): does not reach the PDE4 IC50 | change of Cmax of F1 by co-administration of rolipram [3, 4]: essentially unchanged | Cmax ([3]; mice, F1 30 mg/kg IP alone, read-out: Cmax, F1): 2.2 µM

C[C@@H]1C[C@H]2[C@@H]3CCC4=CC(=O)C=C[C@]4(C)[C@@]3(F)[C@@H](O)C[C@]2(C)[C@@]1(O)C(=O)CO [dexamethasone]
reduction in serum TNF ([1]; dexamethasone 5 mg/kg 60 min prior to LPS): 93% | inhibited TNF production ([1]; dexamethasone control): 94%

COc1ccc(C2CNC(=O)C2)cc1OC1CCCC1 (centres unmarked) [rolipram, reference compound]
reduction in serum TNF ([1]; rolipram 5 mg/kg oral 60 min prior to LPS 50 μg/kg IP, vs vehicle): 54% | IC50 (PDE7): > 10 µM | Cmax of Rolipram reduced by a factor by co-administration with F1 [3, 4]: 3 factor | Cmax ([3]; po, 10 mg): 0.29 µM

COc1ccc([C@]2(C#N)CC[C@@H](C(=O)O)CC2)cc1OC1CCCC1 [cilomilast, reference compound]
IC50 (PDE1): 3.4 µM | inhibited TNF production ([1]; cilomilast 1 mg/kg): 56% | IC50 (PDE3): > 10 µM | IC50 [2]: 0.43 µM | IC50 (PDE7): > 50 µM | IC50 (PDE5): > 10 µM | IC50 (PDE4): 0.03 µM
